Like-named read-outs stand apart in the source and are kept apart here.
What was measured:
[1] = tested on: MES-SA/Dx5 cells; assay: MTT assay (cytotoxicity) in paclitaxel-resistant MES-SA/Dx5 cells; type: cell-based, human
Protocol: (§1) MCF7, SKOV-3 and MES-SA/Dx5 cells were purchased from American Type Culture Collection (ATCC, Manassas, Va., USA). […] MCF7 cells were cultured in Eagle's Minimum Essential Medium (EMEM) supplemented with 10% fetal bovine serum (FBS) and 0.01 mg/ml bovine insulin. SKOV-3 and MES-SA/Dx5 cells were cultured using McCoy's 5A modified media supplemented with 10% FBS. All experiments were performed in the aforementioned cell-specific media in a 5% CO2 incubator at 37° C.
(§2) Following 24 hours of growth, media was replaced with 200 μL of corresponding sample solutions, which were freshly prepared at varying concentrations in complete cell culture media. Cells in media containing 10% FBS with nothing added were used as controls. After 12 hours or 48 hours of treatment, cells were rinsed and cultured with fresh medium containing 0.5 mg/mL of MTT for an additional 3 hours. Following careful aspiration of MTT solution and media after MTT incubation, 200 μL of MTT solubilization solution was added to each well and thoroughly mixed. The optical density at 570 nm was measured using a Safire microplate reader (Tecan Systems, Inc., San Jose, Calif.). Background absorbance at 690 nm was subtracted. Values were expressed as a percentage of the control (incubated with media alone). All conditions were done in sextuplicate in two independent experiments for each cell line.

[2] = Dynamic light scattering (DLS) hydrodynamic size and dispersion in PBS; type: physicochemical; details: 25 μM paclitaxel in PBS, DLS and TEM
Protocol: PTX-DNA-AuNPs or DNA-AuNPs were resuspended in 200 uL PBS buffer with oligonucleotide strands of an equivalent concentration of 25 μM. Hydrodynamic size measurements were conducted using the Zetasizer Nano ZS (Malvern, Worcestershire, U.K.). The size measurements were performed at 25° C. at a 173° scattering angle in disposable micro cuvettes (minimum volume 40 μL, Malvern, Worcestershire, U.K.). The mean hydrodynamic diameter was determined by cumulative analysis. Transmission Electron Microscopy (TEM) was performed using a 200 kV Hitachi H-8100 TEM (EPIC, Northwestern University). Diluted PTX-DNA-AuNPs in deionized water were pipetted onto a commercial carbon TEM grid (Ted Pella Inc., Redding, Calif.). Upon air drying for 2 hours, samples were then observed within a Hitachi H-8100 TEM.

[3] = tested on: MES-SA/Dx5 cells; assay: Fluorescent TUNEL assay (apoptosis) in MES-SA/Dx5 cells; type: cell-based, human; details: MES-SA/Dx5, 48 hours, 100 nM paclitaxel or DNA strand
Protocol: MCF7 and MES-SA/Dx5 cells were seeded on 0.17 mm thick coverslips in 12-well plates at a density of 2×10^5 cells/well for 24 hours prior to fluorescent TUNEL assay. Cells were treated with nothing, DNA-AuNPs at a DNA strand concentration of 100 nM (negative controls), 100 nM of free paclitaxel and compound 1 (positive controls), PTX-DNA-AuNPs at the equivalent paclitaxel concentrations of 50 nM and 100 nM (samples), respectively, for 48 hours. Live cells were rinsed and stained in accordance with instructions and materials for adherent cultured cells provided by Chemicon International ApopTag Plus Fluorescein In situ Apoptosis Detection Kit S7111 (Temecula, Calif.). ApopTag utilizes the terminal deoxynucleotidyl transferase (TdT) enzyme to amplify the fluorescein-conjugated anti-digoxigenin antibody, a secondary antibody towards digoxigenin-labeled nucleotide-labeled 30-OH termini on DNA fragments. Images were acquired on a Zeiss LSM 510 inverted microscope (computer controlled using Zeiss Zen software).
MCF7 or MES-SA/Dx5 cells were incubated with drug-free DNA-AuNPs, free paclitaxel, compound 1 and PTX-DNA@AuNPs, respectively, at varying concentrations for 48 hours.

[4] = tested on: SKOV-3 ovarian cancer cells; assay: MTT assay (cytotoxicity) in SKOV-3 cells; type: cell-based; details: Homo sapiens, SK-OV-3, paclitaxel-equivalent concentration
Protocol: MCF7, SKOV-3 and MES-SA/Dx5 cells were purchased from American Type Culture Collection (ATCC, Manassas, Va., USA). Media, Dulbecco's phosphate buffered saline (DPBS), and 0.25% trypsin/EDTA were purchased from Invitrogen (Carlsbad, Calif., USA). MCF7 cells were cultured in Eagle's Minimum Essential Medium (EMEM) supplemented with 10% fetal bovine serum (FBS) and 0.01 mg/ml bovine insulin. SKOV-3 and MES-SA/Dx5 cells were cultured using McCoy's 5A modified media supplemented with 10% FBS. All experiments were performed in the aforementioned cell-specific media in a 5% CO2 incubator at 37° C.
as §2, with “Briefly, cells were seeded on 96-well plates for 24 hours before the assay at a density of 1.5×10^4 cells/well. Following” for “Following”, “Following careful aspiration of MTT solution and media after MTT incubation, 200 μL of MTT solubilization solution was added to each well and thoroughly mixed.” left out, “All conditions were done in sextuplicate in two independent experiments for each cell line.” left out

[5] = tested on: MCF7 cells; assay: MTT assay (cytotoxicity) in MCF7 cells; type: cell-based; details: Homo sapiens
Protocol: as §1, §2

CC(=O)O[C@H]1C(=O)[C@@]2(C)[C@H]([C@H](OC(=O)c3ccccc3)[C@]3(O)C[C@H](OC(=O)[C@H](O)[C@@H](NC(=O)c4ccccc4)c4ccccc4)C(C)=C1C3(C)C)[C@]1(OC(C)=O)CO[C@@H]1C[C@@H]2O [paclitaxel]
viability at 0.2 µM ([1]; Homo sapiens, 48 h, MES-SA/Dx5, 2 days incubation, 200 nM drug concentration, % of control, read-out: cell viability): 76%
IC50 ([1]; Homo sapiens, MES-SA/Dx5, 12 h incubation, paclitaxel-equivalent concentration, read-out: IC50 (nM Paclitaxel)): > 1000 nM
IC50 ([1]; Homo sapiens, MES-SA/Dx5, 48 h incubation, paclitaxel-equivalent concentration, read-out: IC50 (nM Paclitaxel)): > 1000 nM
IC50 ([1]; Homo sapiens, resistant MES-SA/Dx5 cells, 12 hours and 48 hours, read-out: IC50 values): > 1000 nM
therapeutic activity ([1]; paclitaxel-resistant MES-SA/Dx5, 200 nM, 2 days): did not display any significant therapeutic activity
dispersion in PBS [2]: severe aggregation
TUNEL staining (apoptosis) [3]: lower fraction of TUNEL-positive signals
IC50 ([4]; SKOV-3, 12 h incubation): 176 nM
IC50 ([4]; SKOV-3, 48 h incubation): 28.9 nM
IC50 ([5]; MCF7, 12 h incubation, paclitaxel-equivalent concentration, read-out: IC50 (nM Paclitaxel)): > 1000 nM
IC50 ([5]; MCF7, 12 hour incubation, read-out: IC50 value): > 1000 nM
IC50 ([5]; MCF7, 48 h incubation, paclitaxel-equivalent concentration, read-out: IC50 (nM Paclitaxel)): 193 nM
